Source: patent US7842817B2, “2-amino benzimidazole derivatives and their use as modulators of small-conductance calcium-activated potassium channels” (Neurosearch A/S, priority 2005, dated 2010)
Where a name gives a salt, the structure may show the parent alone.

For `N=c1n(Cc2ccc(F)c(F)c2)c2ccccc2n1-c1ccc(F)c(F)c1` (as salt: hydrobromid) [Example 13, 1-(3,4-Difluorobenzyl)-3-(3,4-difluorophenyl)-1,3-dihydrobenzoimidazol-2-ylideneamine], which melting point is on record?
The melting point was 259 to 260 °C.

Which melting point does the source give for `Fc1ccc(Cn2c(Nc3ccc(F)c(F)c3)nc3ccccc32)cc1F` (as salt: hydrochloride) [Example 5, N-[1-(3,4-Difluorobenzyl)benzimidazol-2-yl]-3,4-difluoroaniline] here?
Its melting point is 236 to 238 °C.

With `N=c1n(Cc2ccc(Cl)cc2)c2ccccc2n1Cc1ccc(Cl)cc1` [Example 1, 1,3-Bis(4-chlorobenzyl)-1,3-dihydrobenzoimidazol-2-ylideneamine] as the molecule, how does the melting point read?
Its melting point is 185 to 187 °C.

For `N=c1n(Cc2ccc(Cl)c(Cl)c2)c2ccccc2n1Cc1ccc(Cl)c(Cl)c1` [Example 2, 1,3-Bis(3,4-dichlorobenzyl)-1,3-dihydrobenzoimidazol-2-ylideneamine], which melting point is on record?
Its melting point is 145 to 146 °C.

For `N=c1n(Cc2ccc(F)cc2)c2ccccc2n1Cc1ccc(F)cc1` [Example 3, 1,3-Bis(4-fluorobenzyl)-1,3-dihydrobenzoimidazol-2-ylideneamine], which melting point is on record?
Its melting point is 148 to 150 °C.

Which melting point does the source give for `N=c1n(Cc2ccc(F)c(F)c2)c2ccccc2n1Cc1ccc(F)c(F)c1` [Example 4, 1,3-Bis(3,4-difluorobenzyl)-1,3-dihydrobenzoimidazol-2-ylideneamine] here?
The melting point was 114 to 117 °C.

Which melting point does the source give for `Fc1ccc(Cn2c(Nc3ccc(C(F)(F)F)cc3)nc3ccccc32)cc1F` [Example 7, N-[1-(3,4-Difluorobenzyl)benzimidazol-2-yl]-4-trifluoromethylaniline] here?
Its melting point is 167 to 170 °C.

With `FC(F)(F)c1cc(Cn2c(Nc3ccc(Cl)c(C(F)(F)F)c3)nc3ccccc32)ccc1Cl` [Example 8, N-[1-(4-Chloro-3-trifluoromethylbenzyl)benzimidazol-2-yl]-4-chloro-3-trifluoromethylaniline] as the molecule, how does the melting point read?
Its melting point is 88 to 92 °C.

Which melting point does the source give for `Fc1ccc(CNc2nc3ccccc3n2Cc2ccc(Cl)c(C(F)(F)F)c2)cc1F` [Example 9, N-[1-(4-Chloro-3-trifluoromethylbenzyl)benzimidazol-2-yl]-3,4-difluorobenzylamine] here?
The melting point was 158 to 161 °C.

With `N=c1n(Cc2cc(F)cc(F)c2)c2ccccc2n1Cc1cc(F)cc(F)c1` [Example 12, 1,3-Bis(3,5-difluorobenzyl)-1,3-dihydrobenzoimidazol-2-ylideneamine] as the molecule, how does the melting point read?
The melting point was 144 to 145 °C.

With `N=c1n(Cc2ccc(F)c(F)c2)c2ccc(F)cc2n1Cc1ccc(F)c(F)c1` [Example 15, 1,3-Bis(3,4-difluorobenzyl)-5-fluoro-1,3-dihydrobenzoimidazol-2-ylideneamine] as the molecule, how does the melting point read?
Its melting point is > 166 °C (dec.).

With `N=c1n(Cc2cccc(C(F)(F)F)c2)c2ccccc2n1Cc1cccc(C(F)(F)F)c1` [Example 16, 1,3-Bis[3-(trifluoromethyl)benzyl]-1,3-dihydrobenzoimidazol-2-ylideneamine] as the molecule, how does the melting point read?
The melting point was 175 to 177 °C.

Which melting point does the source give for `N=c1n(Cc2ccc(F)c(F)c2)c2ccc(Br)cc2n1Cc1ccc(F)c(F)c1` [Example 17, 1,3-Bis(3,4-difluorobenzyl)-5-bromo-1,3-dihydrobenzoimidazol-2-ylideneamine] here?
The melting point was 88 to 89.5 °C.

With `Fc1ccc(CNc2nc3ccccc3n2-c2ccc(F)c(F)c2)cc1F` [Example 19, (3,4-Difluorobenzyl)-[1-(3,4-difluorophenyl)-1H-benzoimidazol-2-yl]amine] as the molecule, how does the melting point read?
The melting point was 158.5 to 159.5 °C.

With `Fc1ccc(Nc2nc3ccccc3n2-c2ccc(F)c(F)c2)cc1F` [Example 20, (3,4-Difluorophenyl)-[1-(3,4-difluorophenyl)-1H-benzoimidazol-2-yl]amine] as the molecule, how does the melting point read?
The melting point was 115 to 117 °C.
